pIC50: −log10 of the molar value. Read-outs that look alike come from different tables or passages of the source.

This is an account of results in patent publication US5952382A, “Adamantyl-substituted retinoids and pharmaceutical/cosmetic compositions comprised thereof” (Centre International De Recherches Dermatologiques Galderma, priority 1995, dated 1999).

The subject of assay [1] is embryonic teratocarcinoma F9 cells. To be noted: prior art; cited from earlier work.
The test system is the same in assay [2]. Nature of the assay: Test of differentiation of embryonic teratocarcinoma F9 cells, antagonism of an agonist retinoid (secretion of the activator of plasminogen, morphology). Type of assay: cell-based, mice. Particulars: inhibition by 50% of effect of agonist compound A (10 nM) on secretion of the activator of plasminogen, 3 days incubation, read-out: Antagonist against compound A (10 nM) Test of differentiation of F9 cells IC50.

In the case of `CC1=C(/C=C/C(C)=C/C=C/C(C)=C/C(=O)O)C(C)(C)CCC1` [retinoic acid], in assay [1], the “induction of differentiation of embryonic teratocarcinoma cells (F9) in mice” value is given as “capable of inducing differentiation”.

As a reminder, the pIC50 is the IC50 on a negative log10 scale, so that one unit is a factor of ten. Take `O=C(O)c1ccc(-c2ccc3cc(OCc4ccccc4)c(C45CC6CC(CC(C6)C4)C5)cc3c2)cc1O` [Example 1, 2-hydroxy-4-[7-(1-adamantyl)-6-benzyloxy-2-naphthyl]benzoic acid]: in assay [2] (Mus musculus, F9, 72 h), the pIC50 was 8.30.

Turning to `COCCOCOc1cc2ccc(-c3ccc(C(=O)O)cc3)cc2cc1C12CC3CC(CC(C3)C1)C2` [Example 3, 4-[7-(1-adamantyl)-6-methoxyethoxymethoxy-2-naphthyl]benzoic acid], the pIC50 in assay [2] (Mus musculus, F9, 72 h) was 8.70.

Regarding `O=C(O)c1ccc(-c2ccc3cc(OCCCCCCCCO)c(C45CC6CC(CC(C6)C4)C5)cc3c2)cc1` [Example 14, 4-[7-(1-adamantyl)-6-hydroxyoctyloxy-2-naphthyl]benzoic acid], the pIC50 in assay [2] (Mus musculus, F9, 72 h) is 6.60.

For the compound `COCCCCCCOc1cc2ccc(-c3ccc(C(=O)O)cc3)cc2cc1C12CC3CC(CC(C3)C1)C2` [Example 39, 4-[7-(1-adamantyl)-6-methoxyhexyloxy-2-naphthyl]benzoic acid], the pIC50 in assay [2] (Mus musculus, F9, 72 h) is 6.35.

As to `O=C(O)c1ccc(-c2ccc3cc(OCc4ccccc4)c(C45CC6CC(CC(C6)C4)C5)cc3c2)cc1` [Example 5, 4-[7-(1-adamantyl)-6-benzyloxy-2-naphthyl]benzoic acid], the pIC50 in assay [2] (Mus musculus, F9, 72 h) was 6.74.

In the case of `O=C(O)c1ccc(-c2ccc3cc(C(=O)OCc4ccccc4)c(C45CC6CC(CC(C6)C4)C5)cc3c2)cc1` [Example 6, 4-[7-(1-adamantyl)-6-benzyloxycarbonyl-2-naphthyl]benzoic acid], in assay [2] (Mus musculus, F9, 72 h), the pIC50 was 6.30.

For “4-[7-(1-adamantyl)-6-carbonylpentyloxy-2-naphthyl]benzoic acid [Example 20]”, in assay [2], the pIC50 is 7.00.
